The text below walks through data of patent publication US20230381205A1, “COMPOSITIONS AND METHODS FOR TREATING NEURONAL DISORDERS WITH CANNABINOIDS” (INMED PHARMACEUTICALS INC., priority 2020, published 2023).

Data set [1] relates to differentiated SH-SY5Y human neuronal cells. The data set is described as follows: MTT assay: neuroprotection from Aβ1-42 induced cytotoxicity. It counts as cell-based. The settings on record: FIG. 7. Here is the method: Cell Culture and Differentiation: The SH-SY5Y human neuronal cell line was derived from neuroblastoma established from a metastatic bone tumor (patient with neuroblastoma). The cells were maintained in DMEM:F12 culture medium supplemented with 10% FBS and 1% Antibiotic-Antimycotic penicillin/streptomycin (growth medium) at 37° C. in a humidified atmosphere of 5% CO2. To induce neuronal differentiation of SH-SY5Y cells, culture media was replaced by a growth medium containing Retinoic Acid (RA) for 4-5 days at 37° C. in a humidified atmosphere of 5% CO2.
Compounds and Dosing Formulations: Selected cannabinoids: CBD, CBDA, CBC, CBG, CBGA, CBN, CBND and Δ^9-THC were procured from Cayman Chemicals and TRC. Ethanol (100%) was used as the solvent to prepare 1 and 10 mM stock solutions. Treatment concentrations for CBGA were prepared at 0.5 μM, 1.5 μM, 5 μM, 10 μM, 15 μM, 20 μM. Treatment concentrations for CBD, CBDA, CBC, CBN, CBND and Δ^9-THC were prepared at 0.5, 1.5, 5 and for CBG at 0.5 μM, 1.5 μM, 5 μM, 10 μM, 15 μM. Treatments were prepared directly in the control medium (DMEM:F12+5% FBS+1% Antibiotic-Antimycotic) by using appropriate stock solutions.
Evaluation of Cytotoxicity and Neuroprotection: Evaluation of cannabinoids neuroprotection and cytotoxicity on differentiated SH-SY5Y human neuronal cells was carried out by MTT (3-(4,5-dimethylthiazol-2-yl)-2,5-diphenyltetrazolium bromide) assay. Initially, cannabinoid cytotoxicity and neuroprotection were evaluated in a primary screen assay without the presence of cytotoxicity inducing insult agents. […] The Retinoic Acid (RA) differentiated SH-SY5Y neuronal cells were seeded onto 96-well plates (10,000 cells/well) in DMEM:F12 complete medium. Cells were differentiated for 4-5 days in the presence of RA.
MTT Assay: For the MTT assay, differentiated SH-SY5Y neuronal cells were treated with cannabinoids at various concentrations for 72 hrs in the presence of STSR at 75 nM, 100 nM, 150 nM and 200 nM or for 24 hrs in the presence of […] at 5 μM, respectively and processed to determine cytotoxicity. Briefly, 5 mg/mL of methylthiazolyldiphenyl-tetrazolium bromide (Sigma-Aldrich) stock solution was prepared in PBS. Following treatment of SH-SY5Y neuronal cells with cannabinoids for 72 hrs, the cells were incubated with 20 μL of MTT stock solution in 200 μL DMEM for 2 hrs at 37° C. Following subsequent washes with PBS, 200 μL of isopropanol was added to each well. The resulting change in color from dissolving formazan salt was immediately quantified using a spectrophotometer (BMG Labtech) at a wavelength of 570 nm. […] The results are illustrated in FIGS. 1-7.
Background: Formazan colour is commonly taken as a measure of viable cells.

The next data set relates to BAX. The data set is described as follows: Western blot of BAX (pro-apoptotic marker). Particulars: CBGA alone or in the presence of Aβ1-42 (5 μM), FIG. 9. It counts as cell-based, human. Here is the method: (§1) For Western blot analysis, control and the treated cells were harvested and lysed in cold lysis buffer (150 mM NaCl, 50 mM Tris-HCl, 1% Triton X-100, 0.1% SDS, 0.5% Sodium deoxycholate, and 1% protease-phosphatase inhibitor mixture). The supernatants were collected and protein concentrations were determined using Bio-Rad protein assay (Bio-Rad Laboratories). Whole cell lysates (10 μg) were subjected to 10% SDS-polyacrylamide electrophoresis and transferred to nitrocellulose membrane. The membranes were blocked with 5% skim milk in TBS-T (Tris-buffered saline with 0.05% Tween-20) for 1 h at RT and blotted overnight in the presence of monoclonal anti-mouse MAP2 (1:1000, Sigma, cat. no. M1406), Tau (1:1000, Invitrogen, cat. no. AHB0042), TUJI (1:5000, BioLegend, cat. no. MMS-435P), BAX (1:1000, Cell signaling, cat. no. 2772) and rabbit polyclonal total and phosphorylated BCL (1:1000, Cell signaling, antibodies #2827 and 2870). The membranes were washed and incubated for 1 h in RT with either horseradish peroxidase (HRP)-conjugated goat anti-mouse (1:2000) or goat anti-rabbit antibodies (1:2000) (Jackson Lab). The membranes were washed and developed using chemiluminescence detection kit (Millipore, Billerica, MA, USA) on Alpha Innotech FluorChem 8800. β-Actin or Vinculin was used as a loading control. […]

The test system of the next data set is BCL2. Kind of data set: Western blot of phosphorylated BCL2 (anti-apoptotic marker). It counts as cell-based, human. The settings on record: CBGA 5 μM and 10 μM on Aβ1-42 (5 μM) treated cells, FIG. 10. Here is the method:
as §1
In general terms: In western blotting, separated proteins are transferred to a membrane and probed.

Data set [2] deals with differentiated SH-SY5Y cells. The data set is described as follows: Neurite length / neuritogenesis in differentiated SH-SY5Y cells. It counts as cell-based, human. Here is the method: FIG. 12 provides representative photomicrographs illustrating CBGA mediated changes in neurite elongation and branching in differentiated SH-SY5Y cells in a dose dependent manner. […] FIG. 12 also provides a histogram showing gradual changes in neurite length following treatment with CBGA.
(§2) FIG. 14 Morphological characterization of CBGA, THC and CBN mediated changes in differentiated SH-SY5Y cells. SH-SY5Y cells were differentiated with RA (10 μM) for 5 days as indicated. (A) Representative confocal photomicrographs showing changes in the cellular distribution of Tuj1 in RA induced differentiated SH-SY5Y cells following treatment with CBGA, THC and CBN. (B) Histogram showing the effect of CBGA, CBN, THC on neurite length.

A further data set has as its system Tuj1. Kind of data set: Western blot of Tuj1 neuritogenesis marker. It counts as cell-based, human. The settings on record: 5 μM and 10 μM, FIG. 13. Here is the method:
FIG. 13 CBGA upregulates the expression of Tuj1 neuritogenesis marker. Developmental changes in prominent intracellular marker of neurite growth, neuron-specific III β-tubulin (Tuj1) was determined using Western blot analysis. CBGA increased the expression of Tuj1 in differentiated SH-SY5Y cells. FIG. 13 also provides a histogram showing densitometric analysis of relative expression of Tuj1. β-Actin was used as a loading control. P<0.05 for CBGA 10 μM vs Control by One-Way ANOVA.
For Western blot analysis, control and the treated cells were harvested and lysed in cold lysis buffer (150 mM NaCl, 50 mM Tris-HCl, 1% Triton X-100, 0.1% SDS, 0.5% Sodium deoxycholate, and 1% protease-phosphatase inhibitor mixture). The supernatants were collected and protein concentrations were determined using Bio-Rad protein assay (Bio-Rad Laboratories). Whole cell lysates (10 μg) were subjected to 10% SDS-polyacrylamide electrophoresis and transferred to nitrocellulose membrane. […]

The test system of data set [3] is differentiated SH-SY5Y cells. The data set is described as follows: Immunocytochemistry of TuJ1 and neuronal morphology. In kind it is cell-based, human. Particulars: 5 μM and 10 μM, FIG. 14. Here is the method:
as §2

In data set [4] the test system is differentiated SH-SY5Y cells. The data set is described as follows: Confocal immunofluorescence of MAP2 and neurite morphology. It counts as cell-based, human. The settings on record: FIG. 16. Here is the method:
SH-SY5Y cells were differentiated with RA (10 μM) for 5 days as indicated.
Accordingly, the effect of CBGA on the expression of MAP-2 was tested.

On to `CCCCCc1cc(O)c(C/C=C(\C)CCC=C(C)C)c(O)c1C(=O)O` [CBGA, 3-[(2E)-3,7-dimethylocta-2,6-dienyl]-2,4-dihydroxy-6-pentylbenzoic acid], for which the “protection from Aβ1-42 induced insult” value in data set [1] (0.15 μM, 0.5 μM, 1.5 μM, 5 μM, 10 μM and 15 μM with Aβ1-42 5 μM, dose-dependent) is “protected cells”. In addition, in data set [1] (20 μM with Aβ1-42 5 μM), the “effect with Aβ1-42 at the highest concentration” value was “resulted in cell death”. Moreover, in the data set on BAX, the BAX expression entry is listed as “attenuates BAX expression to the control levels”. Also, the BCL2 expression result in the data set with BCL2 is listed as “abrogates the downregulation of BCL2”. Moreover, in data set [2] (24 hours post treatment, FIG. 14 (B)), the neurite length result is “increased neurite length significantly”. In addition, in data set [2] (dose dependent, FIG. 12), the “neuritogenesis (neurite length)” value is “significantly increased the neuritogenesis”. Further, in the data set on Tuj1, the “TuJ1 expression, Western blot” value is recorded as “promotes upregulation of TuJ1 expression”. Besides, the “TuJ1 expression, immunocytochemistry” value in data set [3] is “promotes upregulation of TuJ1 expression”. Moreover, the “MAP-2 expression, corrected total cell fluorescence” value in data set [4] (CBGA 10 μM on otherwise untreated cells) was “promoted upregulation of MAP-2”. Also, in data set [4] (CBGA alone), the neurite morphology entry was “elongated neurites and enhanced arborization”. Besides, the MAP2 expression result in data set [4] (CBGA treatment of Aβ1-42 exposed cells) is given as “restores MAP2 expression”.
